Like-named read-outs stand apart in the source and are kept apart here.
Legend:
[1] = system: breast cancer cells, cell line 13762; assay: In vitro cellular uptake assay; format: cell-based
Protocol: After 0.5-4 hours incubation, the cells were washed with phosphate buffered saline 3 times and followed by trypsin to loosen the cells. The cells were counted by a gamma counter.

[2] = system: Fischer 344 tumor-bearing rats; settings: for Blood / Bone / Heart / Intestine / Kidney / Liver / Lung / Muscle / Spleen / Stomach / Thyroid / Tumor / Tumor/Blood / Tumor/Lung / Tumor/Muscle: breast tumor-bearing Fischer 344 rats, 10 μCi/rat i.v.; for Tumor/Blood / Tumor/Lung / Tumor/Muscle: ratio
Protocol: Biodistribution studies were conducted at 30 min, 2 and 4 hours.

[3] = tumor-bearing rats, 30 min, 2 and 4 hours

CC(N)(Cc1ccc(OCCC[18F])cc1)C(=O)O (stereo not drawn) [^18F-FPAMT, 3-^18F-fluoropropyl-α-methyltyrosine]
cellular uptake compared with ^18F-FDG ([1]; breast cancer cell line 13762, 0.5 and 2 hours incubation): slightly higher uptake than ^18F-FDG | cellular uptake as a function of time ([1]; breast cancer cell line 13762, 2 μCi, 0.5-4 hours incubation): increased uptake | Blood ([2]; 30 min): 0.638 ± 0.021 % of injected dose per gram of tissue weight | Bone ([2]; 30 min): 0.447 ± 0.045 % of injected dose per gram of tissue weight | Heart ([2]; 30 min): 0.445 ± 0.019 % of injected dose per gram of tissue weight | Intestine ([2]; 30 min): 0.838 ± 0.058 % of injected dose per gram of tissue weight | Kidney ([2]; 30 min): 8.060 ± 0.101 % of injected dose per gram of tissue weight | Liver ([2]; 30 min): 6.542 ± 1.142 % of injected dose per gram of tissue weight | Lung ([2]; 30 min): 4.812 ± 0.457 % of injected dose per gram of tissue weight | Muscle ([2]; 30 min): 0.318 ± 0.043 % of injected dose per gram of tissue weight | Spleen ([2]; 30 min): 0.404 ± 0.023 % of injected dose per gram of tissue weight | Stomach ([2]; 30 min): 0.440 ± 0.052 % of injected dose per gram of tissue weight | Thyroid ([2]; 30 min): 0.730 ± 0.126 % of injected dose per gram of tissue weight | Tumor ([2]; 30 min): 0.454 ± 0.016 % of injected dose per gram of tissue weight | Blood ([2]; 2 h): 0.298 ± 0.032 % of injected dose per gram of tissue weight | Bone ([2]; 2 h): 1.256 ± 0.117 % of injected dose per gram of tissue weight | Heart ([2]; 2 h): 0.219 ± 0.024 % of injected dose per gram of tissue weight | Intestine ([2]; 2 h): 0.627 ± 0.209 % of injected dose per gram of tissue weight | Kidney ([2]; 2 h): 7.721 ± 1.027 % of injected dose per gram of tissue weight | Liver ([2]; 2 h): 3.587 ± 0.500 % of injected dose per gram of tissue weight | Lung ([2]; 2 h): 0.541 ± 0.084 % of injected dose per gram of tissue weight | Muscle ([2]; 2 h): 0.154 ± 0.017 % of injected dose per gram of tissue weight | Spleen ([2]; 2 h): 0.215 ± 0.029 % of injected dose per gram of tissue weight | Stomach ([2]; 2 h): 0.190 ± 0.024 % of injected dose per gram of tissue weight | Thyroid ([2]; 2 h): 0.860 ± 0.045 % of injected dose per gram of tissue weight | Tumor ([2]; 2 h): 0.312 ± 0.024 % of injected dose per gram of tissue weight | Blood ([2]; 4 h): 0.081 ± 0.007 % of injected dose per gram of tissue weight | Bone ([2]; 4 h): 1.502 ± 0.214 % of injected dose per gram of tissue weight | Heart ([2]; 4 h): 0.054 ± 0.007 % of injected dose per gram of tissue weight | Intestine ([2]; 4 h): 0.148 ± 0.015 % of injected dose per gram of tissue weight | Kidney ([2]; 4 h): 1.467 ± 0.236 % of injected dose per gram of tissue weight | Liver ([2]; 4 h): 0.930 ± 0.049 % of injected dose per gram of tissue weight | Lung ([2]; 4 h): 0.105 ± 0.008 % of injected dose per gram of tissue weight | Muscle ([2]; 4 h): 0.055 ± 0.012 % of injected dose per gram of tissue weight | Spleen ([2]; 4 h): 0.067 ± 0.009 % of injected dose per gram of tissue weight | Stomach ([2]; 4 h): 0.070 ± 0.002 % of injected dose per gram of tissue weight | Thyroid ([2]; 4 h): 1.220 ± 0.260 % of injected dose per gram of tissue weight | Tumor ([2]; 4 h): 0.069 ± 0.003 % of injected dose per gram of tissue weight | Tumor/Blood ([2]; 30 min): 0.712 ± 0.013 | Tumor/Lung ([2]; 30 min): 0.095 ± 0.006 | Tumor/Muscle ([2]; 30 min): 1.464 ± 0.138 | Tumor/Blood ([2]; 2 h): 1.079 ± 0.171 | Tumor/Lung ([2]; 2 h): 0.599 ± 0.079 | Tumor/Muscle ([2]; 2 h): 2.057 ± 0.176 | Tumor/Blood ([2]; 4 h): 0.853 ± 0.036 | Tumor/Lung ([2]; 4 h): 0.658 ± 0.081 | Tumor/Muscle ([2]; 4 h): 1.322 ± 0.341 | Tumor/blood ratio as a function of time [2, 3]: increased as a function of time | Tumor/muscle ratio as a function of time [2, 3]: increased as a function of time | bone uptake (suggesting in vivo defluorination) ([2]; tumor-bearing rats, 2 hours): increased bone uptake
